In the NIST ThermoML archive (doi:10.1016/j.jct.2016.10.034):

Assay: xn = mol fraction of the nth substance listed
Settings: 100 kPa, Liquid; for viscosity: Falling or rolling sphere viscometry; for mass density: Vibrating tube method

CC[N+]1(C)CCCC1.O=C([O-])CO [1-ethyl-1-methylpyrrolidinium glycolate] + O
Settings	mass density [kg/m3]	viscosity [mPa·s]
298.15 K, x1 = 0.0541	1057.7	–
298.15 K, x1 = 0.1293	1100.6	11.8
298.15 K, x1 = 0.2024	1118.3	25.2
298.15 K, x1 = 0.2905	1127.2	46.2
298.15 K, x1 = 0.3464	1130	61.1
298.15 K, x1 = 0.4258	1132.3	84
298.15 K, x1 = 0.5357	1133.9	119
298.15 K, x1 = 0.6086	1134.3	145
298.15 K, x1 = 0.729	1134.7	195
298.15 K, x1 = 0.825	1134.5	241
298.15 K, x1 = 0.8839	1134.3	271
303.15 K, x1 = 0.0541	1055.1	–
303.15 K, x1 = 0.1293	1097.2	9.63
303.15 K, x1 = 0.2024	1114.7	19.9
303.15 K, x1 = 0.2905	1123.6	37.2
303.15 K, x1 = 0.3464	1126.5	48.2
303.15 K, x1 = 0.4258	1128.8	65
303.15 K, x1 = 0.5357	1130.4	90.6
303.15 K, x1 = 0.6086	1130.9	110
303.15 K, x1 = 0.729	1131.3	146
303.15 K, x1 = 0.825	1131.1	179
303.15 K, x1 = 0.8839	1130.9	200
308.15 K, x1 = 0.0541	1052.3	–
308.15 K, x1 = 0.1293	1093.7	8
308.15 K, x1 = 0.2024	1111.2	16.5
308.15 K, x1 = 0.2905	1120.1	30
308.15 K, x1 = 0.3464	1123	38.3
308.15 K, x1 = 0.4258	1125.4	51.4
308.15 K, x1 = 0.5357	1127	70.8
308.15 K, x1 = 0.6086	1127.5	85.4
308.15 K, x1 = 0.729	1127.9	112
308.15 K, x1 = 0.825	1127.7	137
308.15 K, x1 = 0.8839	1127.6	152
313.15 K, x1 = 0.0541	1049.5	–
313.15 K, x1 = 0.1293	1090.3	6.75
313.15 K, x1 = 0.2024	1107.6	13.5
313.15 K, x1 = 0.2905	1116.6	23.5
313.15 K, x1 = 0.3464	1119.5	30.5
313.15 K, x1 = 0.4258	1121.9	41.3
313.15 K, x1 = 0.5357	1123.6	56.4
313.15 K, x1 = 0.6086	1124.1	67.6
313.15 K, x1 = 0.729	1124.6	87.7
313.15 K, x1 = 0.825	1124.4	106
313.15 K, x1 = 0.8839	1124.3	119
318.15 K, x1 = 0.0541	1046.6	–
318.15 K, x1 = 0.1293	1086.8	5.69
318.15 K, x1 = 0.2024	1104	11.6
318.15 K, x1 = 0.2905	1113.1	20
318.15 K, x1 = 0.3464	1116	25.4
318.15 K, x1 = 0.4258	1118.5	33.8
318.15 K, x1 = 0.5357	1120.3	45.7
318.15 K, x1 = 0.6086	1120.8	54.2
318.15 K, x1 = 0.729	1121.3	70
318.15 K, x1 = 0.825	1121.1	83.6
318.15 K, x1 = 0.8839	1121	92.8
323.15 K, x1 = 0.1293	–	4.85
323.15 K, x1 = 0.2024	–	9.82
323.15 K, x1 = 0.2905	–	16.4
323.15 K, x1 = 0.3464	–	20.9
323.15 K, x1 = 0.4258	–	27.7
323.15 K, x1 = 0.5357	–	37.5
323.15 K, x1 = 0.6086	–	44.5
323.15 K, x1 = 0.729	–	56.6
323.15 K, x1 = 0.825	–	67
323.15 K, x1 = 0.8839	–	74.6
